The text below walks through data of the RepoRT retention time repository (doi:10.1016/j.chroma.2015.11.014).

A short description of the data set: RP, Agilent ZORBAX Eclipse Plus C18, 150 × 2.1 mm, 3.5 µm, 40 °C, 0.3 mL/min, estimated dead time 1.1 min; A: water + 0.1% formic acid; B: acetonitrile + 0.1% formic acid; gradient (min/%B) 0/2 1/2 2/20 16.5/98 22/98. The note with it: stereoisomer not certain.

`c1ccc([P+](Cc2ccccn2)(c2ccccc2)c2ccccc2)cc1`: the LC retention time was 8.34 min. `CCCCCCCCCCCCCCCC[N+](C)(C)CCCCCCCCCCCCCCCC`: the LC retention time was 18.4 min.

Take `COC(=O)c1cccc(O)c1`: the LC retention time was 7.88 min. In the case of `CCCCCCCCCCCCCCCCCCCC[N+](C)(C)C`, the LC retention time is 15.7 min. The result for `CN(C)c1nc2c(ncn2C2OC(CO)C(O)C2O)c(=O)[nH]1` (stereo not given) reads 4.57 min; that for `O=C1CC2(CCCCC2)C(=O)N1`, 7.4 min. Then `c1ccc(CNCc2ccccc2)cc1`, with 6 min; and `O=C1CN(N=Cc2ccc([N+](=O)[O-])o2)C(=O)N1`, with 6.22 min. Turning to `CN(C)C1C(=O)C(C(N)=O)=C(O)C2(O)C(=O)C3=C(O)c4c(O)cccc4C(C)(O)C3CC12` (stereo not given), the LC retention time was 5.46 min. Then `CC(O)CCCCn1c(=O)c2c(ncn2C)n(C)c1=O` (stereo not given), with 6.42 min; and `CCCC[P+](c1ccccc1)(c1ccccc1)c1ccccc1`, with 8.85 min.

As to `COCC(=O)Nc1cc(Sc2ccccc2)ccc1N=C(NC(=O)OC)NC(=O)OC`, the LC retention time is 13.1 min. Consider `Nc1ccn(C2CSC(CO)O2)c(=O)n1` (stereo not given), for which the LC retention time was 3.1 min. The result for `CSCC1OC(n2cnc3c(N)ncnc32)C(O)C1O` (stereo not given) reads 4.79 min; that for `c1ccc2scnc2c1`, 8.78 min; that for `O=c1[nH]c(=O)c2ncn(C3OC(CO)C(O)C3O)c2[nH]1` (stereo not given), 4.35 min. Consider `CCCCCCCCCCCCCCCC[N+](C)(C)CC`, for which the LC retention time is 13 min.

Take `COc1cccc(OC)c1OC`: the LC retention time is 9.03 min. Then `CC(=O)OC1(C(C)=O)CCC2C3CC(C)C4=CC(=O)CCC4(C)C3CCC21C` (stereo not given), with 13.7 min; and `CC(C)(C)P(=O)(O)O`, with 4.63 min. Consider `CCCCC[N+](CCCC)(CCCC)CCCC`, for which the LC retention time was 9.57 min. For `CC(=O)Nc1cccc(O)c1`, the LC retention time is 5.68 min.

Consider `O=c1c(O)c(-c2ccc(O)c(O)c2)oc2cc(O)cc(O)c12`, for which the LC retention time is 8.07 min. In the case of `CCCC[N+](CCCC)(CCCC)CCCC`, the LC retention time is 8.91 min. Regarding `CCOC(=O)C(CCc1ccccc1)NC(C)C(=O)N1C(C(=O)O)CC2CCCC21` (stereo not given), the LC retention time was 7.85 min. Take `CC(C)CC(C)(O)C#CC(C)(O)CC(C)C` (stereo not given): the LC retention time was 12.4 min. `CCCCC1=NC2(CCCC2)C(=O)N1Cc1ccc(-c2ccccc2-c2nn[nH]n2)cc1`: the LC retention time was 9.35 min. For `COC(=O)Nc1ccccc1`, the LC retention time is 8.47 min. In the case of `O=C(O)c1cc(N=Nc2ccc(S(=O)(=O)Nc3ccccn3)cc2)ccc1O`, the LC retention time is 9.22 min. For `Cc1c(N)c(=O)n(-c2ccccc2)n1C`, the LC retention time was 4.78 min. Then `Cc1cc(OCCOCC[N+](C)(C)Cc2ccccc2)ccc1C(C)(C)CC(C)(C)C`, with 12.3 min; and `Oc1ccc(Oc2ccccc2)cc1`, with 11.1 min; and `O=C(O)CCCCC(=O)O`, with 5.22 min. Take `CC1(C)CCCC(C)(C)N1`: the LC retention time was 4.82 min. Take `c1ccc(-c2nc3ccccc3[nH]2)cc1`: the LC retention time was 5.9 min. As for `COc1ccc(-c2coc3cc(O)ccc3c2=O)cc1`, the LC retention time was 10.1 min.

With `CNCC(CC(=O)O)CC(C)C` (stereo not given), the LC retention time is 4.84 min. In the case of `NCC(O)COc1ccccc1` (stereo not given), the LC retention time was 4.75 min. As to `CC(=O)Nc1ccc(O)c(O)c1`, the LC retention time is 4.47 min.

With `COc1ccc(NC(C)=O)cc1`, the LC retention time is 6.51 min. The result for `CC(C)NCC(O)COc1cccc2ccccc12` (stereo not given) reads 7.36 min; that for `CC(=O)Nc1c(C)n(C)n(-c2ccccc2)c1=O`, 5.59 min. For `CCCCCCCCCC[N+](C)(C)CCCCCCCCCC`, the LC retention time was 13.4 min. Consider `CC(C)(C)OC(=O)C[P+](c1ccccc1)(c1ccccc1)c1ccccc1`, for which the LC retention time was 8.83 min. For `CC12CCC(=O)C=C1CCC1C2CCC2(C)C1CCC2(C)O` (stereo not given), the LC retention time was 11.6 min. For the molecule `CCCC1CC(C(=O)NC(C(C)O)C2OC(SC)C(O)C(O)C2O)N(C)C1` (stereo not given), the LC retention time is 4.88 min. For `CCCN(CCC)C(=O)SCc1ccccc1`, the LC retention time is 15.5 min. Take `CCCCCCCCOS(=O)(=O)O`: the LC retention time is 9.59 min.

Regarding `CCCCCCCCCCCCOS(=O)(=O)O`, the LC retention time is 14.9 min.

For `CN1C(C)(C)CC(OC(=O)CCCCCCCCC(=O)OC2CC(C)(C)N(C)C(C)(C)C2)CC1(C)C`, the LC retention time is 6.48 min. The result for `CCOP(=O)(OCC)OCC` reads 7.41 min. As to `COc1ccc(C(CN(C)C)C2(O)CCCCC2)cc1` (stereo not given), the LC retention time was 6.63 min. On to `Cc1cccc(Nc2ccncc2S(=O)(=O)NC(=O)NC(C)C)c1`, for which the LC retention time was 7.63 min.

Take `CC(C)C(NC(=O)OC(C)(C)C)C(=O)O` (stereo not given): the LC retention time is 9 min. Then `Cc1ccc(C(=O)c2cc(O)c(O)c([N+](=O)[O-])c2)cc1`, with 11.1 min; and `CC(C)(C(=O)O)c1ccc(C(O)CCCN2CCC(C(O)(c3ccccc3)c3ccccc3)CC2)cc1` (stereo not given), with 8.7 min.

Consider `Nc1ccc2c(c1)C(=O)OC21c2ccc(O)cc2Oc2cc(O)ccc21`, for which the LC retention time is 8.16 min. Consider `COC12C(COC(N)=O)C3=C(C(=O)C(C)=C(N)C3=O)N1CC1NC12` (stereo not given), for which the LC retention time was 5.59 min. Then `CC1(C)SC2C(NC(=O)C(N)c3ccccc3)C(=O)N2C1C(=O)O` (stereo not given), with 5.37 min. Take `O=P(O)(O)Oc1ccccc1`: the LC retention time was 3.47 min. For the molecule `Cc1ncsc1CCO`, the LC retention time was 4.25 min. The result for `CN1CCC23CCCCC2C1Cc1ccc(O)cc13` (stereo not given) reads 5.97 min; that for `CCCCCCCCCCCCCCCC[P+](CCCC)(CCCC)CCCC`, 16 min; that for `CCCC[P+](CCCC)(CCCC)CC1OCCO1`, 8.76 min. Turning to `Oc1cccc2n[nH]nc12`, the LC retention time was 5.34 min. Consider `COC(=O)Nc1nc2ccc(C(=O)c3ccccc3)cc2[nH]1`, for which the LC retention time was 8.67 min. Then `CCCCCCCCCCCC[N+](C)(C)Cc1ccccc1`, with 11.6 min. In the case of `COc1cc(-c2oc3cc(O)cc(O)c3c(=O)c2O)ccc1O`, the LC retention time is 9.42 min. As to `COc1ccc2nc(SCc3[nH]cc(C)c(=O)c3C)[nH]c2c1`, the LC retention time was 6.17 min. Take `O=C(O)c1ccccc1`: the LC retention time is 7.56 min.

Take `O=C(c1ccc(O)cc1O)c1ccc(O)cc1O`: the LC retention time is 8.37 min.

As for `Cc1ccccc1NC(=O)NC1CCCCC1`, the LC retention time is 11 min.

Turning to `CC[N+](CC)(CC([O-])=Nc1c(C)cccc1C)Cc1ccccc1`, the LC retention time was 7.58 min. As for `Cc1ccc(NC(=O)c2ccc(CN3CCN(C)CC3)cc2)cc1Nc1nccc(-c2cccnc2)n1`, the LC retention time is 6.15 min. As to `CCCCCC[N+](C)(C)Cc1ccccc1`, the LC retention time is 7.46 min.

As to `Cc1nnc(-c2ccccc2)c(=O)n1N`, the LC retention time is 6.78 min. Regarding `CCC(C(=O)O)N1CCCC1=O` (stereo not given), the LC retention time was 5.7 min. Then `COCCOC(=O)Nc1cccc(N)c1`, with 4.8 min; and `Cc1c(NC=O)c(=O)n(-c2ccccc2)n1C`, with 5.62 min.

As to `O=C(O)CC1(C(=O)O)CCCCC1`, the LC retention time is 7.49 min. In the case of `CC(C(=O)O)c1cccc(Oc2ccccc2)c1` (stereo not given), the LC retention time was 11.8 min. Take `CN(C)c1cccc(O)c1`: the LC retention time is 4.07 min.

With `CNCCOC(c1ccccc1)c1ccccc1`, the LC retention time is 7.56 min.

On to `S=P(c1ccccc1)(c1ccccc1)c1ccccc1`, for which the LC retention time was 14.5 min. On to `CC(C)=CC[P+](c1ccccc1)(c1ccccc1)c1ccccc1`, for which the LC retention time was 9.02 min. The result for `COc1cc(Cc2cnc(N)nc2N)cc(O)c1OC` reads 5.02 min. For the molecule `CCCCCCCC[N+](C)(C)CCCCCCCC`, the LC retention time is 11.7 min. Consider `CN(C)N=Nc1nc[nH]c1C(N)=O`, for which the LC retention time was 4.47 min. For the molecule `CCCC[N+]1(C)CCCC1`, the LC retention time is 4.27 min. Take `COc1ncnc(NS(=O)(=O)c2ccc(N)cc2)c1OC`: the LC retention time is 7.08 min. Turning to `COc1ccc(Cc2cnc(N)nc2N)cc1OC`, the LC retention time was 4.97 min. For `CC1(C)NC(=O)NC1=O`, the LC retention time was 3.47 min. For `Cc1ccc(O)c(-n2nc3ccccc3n2)c1`, the LC retention time was 15.2 min. `Cc1cc(NS(=O)(=O)c2ccc(NO)cc2)no1`: the LC retention time was 6.77 min. As to `CN(CC=CC#CC(C)(C)C(=O)O)Cc1cccc2ccccc12`, the LC retention time is 7.45 min. Turning to `CCCCOCCOP(=O)(OCCOCCCC)OCCOCCCC`, the LC retention time is 14.6 min. `C=C1CC23CCC4C(C)(C(=O)OC5OC(CO)C(O)C(O)C5O)CCCC4(C)C2CCC1(OC1OC(CO)C(O)C(O)C1OC1OC(CO)C(O)C(O)C1O)C3` (stereo not given): the LC retention time was 8.07 min.

Regarding `CCCCCCCCCCCCCCCCCC[N+](C)(C)Cc1ccccc1`, the LC retention time was 14.9 min. Then `CCCCCCCCCCCCCC[P+](CCCC)(CCCC)CCCC`, with 14.9 min. As for `CCOC(=O)c1ccc(O)cc1`, the LC retention time is 8.83 min. As to `Cn1c(=O)[nH]c2ncn(C)c2c1=O`, the LC retention time was 5.06 min. In the case of `Cn1cnc2c(=O)[nH]c(=O)[nH]c21`, the LC retention time was 2.38 min. Regarding `Nc1ccc(C(=O)O)c(O)c1`, the LC retention time was 5.48 min. For the molecule `CC[N+](CC)(CC)CC`, the LC retention time was 2.28 min. The result for `CC(C)(C)NCC(O)COc1nsnc1N1CCOCC1` (stereo not given) reads 5.51 min.
